The values below come from BindingDB's records for doi:10.1111/cbdd.12105 (Umdnj-New Jersey Medical School, 2013).

SMILES strings stand for the structures.

The test deals with Genome polyprotein (Hepatitis C virus genotype 1b (isolate BK), UniProt P26663). The experiment in a line: NS5B Inhibition Assay. The following applies: pH 7; 30 °C. The source says: Inhibition assay using HCV NS5B.
Sequence of Genome polyprotein (P26663 2420-3010 limits assumed): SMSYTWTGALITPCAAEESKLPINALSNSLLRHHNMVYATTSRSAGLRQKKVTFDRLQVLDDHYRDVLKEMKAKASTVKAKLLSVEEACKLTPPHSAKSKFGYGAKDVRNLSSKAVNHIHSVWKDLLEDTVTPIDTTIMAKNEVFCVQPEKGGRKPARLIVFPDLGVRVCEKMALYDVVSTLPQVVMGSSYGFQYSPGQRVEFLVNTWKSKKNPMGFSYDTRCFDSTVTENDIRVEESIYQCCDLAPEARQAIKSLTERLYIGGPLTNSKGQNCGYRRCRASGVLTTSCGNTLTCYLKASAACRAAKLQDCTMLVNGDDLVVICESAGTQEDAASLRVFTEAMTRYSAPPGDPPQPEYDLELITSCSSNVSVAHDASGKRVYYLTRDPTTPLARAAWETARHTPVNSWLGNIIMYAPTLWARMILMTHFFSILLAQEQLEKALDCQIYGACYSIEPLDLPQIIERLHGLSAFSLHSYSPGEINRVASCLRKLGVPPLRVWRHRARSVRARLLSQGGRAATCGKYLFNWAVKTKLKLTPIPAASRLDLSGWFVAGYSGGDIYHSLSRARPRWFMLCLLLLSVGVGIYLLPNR
As a reminder, the IC50 is the concentration at which inhibition is half-maximal. High values mean a need for much substance, low ones inhibition by little substance. `C=CCc1c(O)c(CC=C)c2oc(=O)cc(-c3ccccc3)c2c1O` [Neoflavonoid derivative, 8c] registered a 50% inhibitory concentration (IC50) of 45.8 µM. That is a double-digit micromolar value.

Compound `C=CCOc1cc(OCC=C)c2c(C)cc(=O)oc2c1` [Neoflavonoid derivative, 6b] registered an IC50 of 38.4 µM. The IC50 values of the last two compounds are within 1.5-fold of each other.

On to `COc1cc2c(cc1O)oc(=O)c1c3cc(O)c(O)cc3oc21` [LQB-34], for which the concentration for half-maximal inhibition (IC50) was found to be 18 µM.

On to `COc1cc(OC)c2c(-c3ccccc3)cc(=O)oc2c1` [5,7-dimethoxy-4-phenyl-chromen-2-one], for which the IC50 turned out to be 63 µM. This IC50 lies about 3.5-fold higher than the previous one.

`Cc1cc(=O)oc2cc(O)ccc12` [4-Methyl-7-hydroxycoumarin]: it took 33.8 µM to reach half-maximal inhibition (IC50).

The compound `C=CCc1c(O)c(CC=C)c2oc(=O)ccc2c1O` [Neoflavonoid derivative, 8a] gave an IC50 of 17.9 µM.

For `C=CCOc1cc(OCC=C)c2c(-c3ccccc3)cc(=O)oc2c1` [Neoflavonoid derivative, 6c], inhibition was half-maximal at 30.3 µM (IC50). Against the preceding compound, the IC50 is about 1.7-fold higher.

The compound `O=c1ccc2ccc(O)cc2o1` [umbelliferone] returned an IC50 of 36.6 µM. This IC50 and that of the compound before are within 1.5-fold of each other.

The compound `COc1cc(OC)c2ccc(=O)oc2c1` [Coumarin derivative, 2a] displayed an IC50 of 58 µM.

`C=CCOc1cc(OCC=C)c2ccc(=O)oc2c1` [Neoflavonoid derivative, 6a] came in with an IC50 of 26.2 µM. Compared with the last compound, the IC50 is about 2.2-fold lower.

Regarding `Cc1cc(=O)oc2cc(O)cc(O)c12` [Coumarin derivative, 1b], it took 47.2 µM to reach half-maximal inhibition (IC50).

For `O=c1ccc2c(O)cc(O)cc2o1` [Coumarin derivative, 1a], the IC50 was found to be 39.7 µM.

Consider `O=c1cc(-c2ccccc2)c2c(O)cc(O)cc2o1`, for which the IC50 turned out to be 27 µM. The IC50 values of the last two compounds are within 1.5-fold of each other.

Consider `COc1cc(OC)c2c(C)cc(=O)oc2c1` [Coumarin derivative, 2b], for which the 50% inhibitory concentration (IC50) was found to be 54.1 µM.

`O=c1cc(-c2ccccc2)c2ccc(O)cc2o1` [7-Hydroxy-4-phenyl-chromen-2-one]: the half-inhibitory concentration (IC50) is 41.6 µM. This IC50 and that of the compound before are within 1.5-fold of each other.
